Test results: patent US20200002382A1, “Method for manufacturing oxytocin by liquid-phase polypeptide synthesis” (LANZHOU KAIBO PHARMACEUTICAL CO., LTD., priority 2017, published 2020)
Read-outs that look alike come from different tables or passages of the source.

Assays:
[1] = Biological value of the pure oxytocin product by the content determination method of the European Pharmacopoeia; conditions: pure oxytocin from the liquid-phase synthesis; European Pharmacopoeia (version 8.0) content determination method, European Pharmacopoeia standards as standard materials; water and acetic acid removed
Text: In order to solve the problems existing in the present oxytocin synthesis technology, the invention provides a liquid-phase synthesis technique of oxytocin characterized by high productivity, low cost, safe environment, mild reaction conditions, high level of purity and biological value and great possibility for industrial production. The pure product of oxytocin provided by the invention has a content of 98.1% and a biological value of 588 IU/mg measured by the content determination method according to the European Pharmacopoeia (version 8.0).
Liquid contained oxytocin with purity above 99% is collected, concentrated at 25° C., desalted by PS polymer, concentrated, and freeze-dried to obtain the pure product of oxytocin (the HPLC image is shown in the attached drawings). The pure product of oxytocin provided by the invention has a content of 98.1% and a biological value of 588 IU/mg measured by the content determination method according to the European Pharmacopoeia, with the European Pharmacopoeia standards used as the standard materials. […]

[2] = Photaki synthesis: 1,2-diiodoethane disulfide formation, HBr/AcOH deprotection, purified product; cited from earlier work

Which results are given for `CC[C@H](C)[C@@H]1NC(=O)[C@H](Cc2ccc(O)cc2)NC(=O)[C@@H](N)CSSC[C@@H](C(=O)N2CCC[C@H]2C(=O)N[C@@H](CC(C)C)C(=O)NCC(N)=O)NC(=O)[C@H](CC(N)=O)NC(=O)[C@H](CCC(N)=O)NC1=O` [oxytocin, Oxytocin]?
biological value [1]: 588 IU/mg; biological value [2]: 380 IU/mg
